In patent US20050245466A1, “Use of topoisomerase inhibitors and heat shock protein 90 inhibitors for use in chemotherapy” (THE UNIVERSITY OF LIVERPOOL, priority 2002, published 2005):

What was measured:
E.coli MC4100 = assay: Agar sensitivity plates, parental strain; type: cell-based; settings: for zone of inhibition: parental strain MC4100
Protocol: (§1) 200 μl of an overnight culture of E.coli strains was spread over the surface of a LB plate. The plates were incubated for three hours at 37° C., and the discs (50 μl of drug) placed onto the plates that were then incubated at 37° C. overnight.
(§2) The plates were photographed the following day with Fluor-S™ Quantity 1 program and the results are illustrated in FIG. 18.
(§3) The inhibition of bacterial cell growth was assessed by examining the zones of inhibition around each disc containing the topo II inhibitor.

E.coli JGT11 (htpG null) = assay: Agar sensitivity plates, htpG null mutant; type: cell-based
Protocol: as §1, §2, §3

[1] = MTD stated with the xenograft dosing; settings: CD1 Nude, mouse, in vivo; mice
Protocol: Treatment with test agents was initiated when the mean individual tumour volume exceeded 1,000 mm^3. The mice were dosed at day 11 and day 22—([…] 10 mg/kg, VePesid 5 mg/kg, MTD […] 22 mg/kg (a non toxic form of 17AAG which can be tolerated at much higher doses) MTD VePesid 70 mg/kg.

HtpG = HtpG (Escherichia coli, UniProt P0A6Z3); settings: in vitro; cited from earlier work
Sequence of HtpG (P0A6Z3 whole entry): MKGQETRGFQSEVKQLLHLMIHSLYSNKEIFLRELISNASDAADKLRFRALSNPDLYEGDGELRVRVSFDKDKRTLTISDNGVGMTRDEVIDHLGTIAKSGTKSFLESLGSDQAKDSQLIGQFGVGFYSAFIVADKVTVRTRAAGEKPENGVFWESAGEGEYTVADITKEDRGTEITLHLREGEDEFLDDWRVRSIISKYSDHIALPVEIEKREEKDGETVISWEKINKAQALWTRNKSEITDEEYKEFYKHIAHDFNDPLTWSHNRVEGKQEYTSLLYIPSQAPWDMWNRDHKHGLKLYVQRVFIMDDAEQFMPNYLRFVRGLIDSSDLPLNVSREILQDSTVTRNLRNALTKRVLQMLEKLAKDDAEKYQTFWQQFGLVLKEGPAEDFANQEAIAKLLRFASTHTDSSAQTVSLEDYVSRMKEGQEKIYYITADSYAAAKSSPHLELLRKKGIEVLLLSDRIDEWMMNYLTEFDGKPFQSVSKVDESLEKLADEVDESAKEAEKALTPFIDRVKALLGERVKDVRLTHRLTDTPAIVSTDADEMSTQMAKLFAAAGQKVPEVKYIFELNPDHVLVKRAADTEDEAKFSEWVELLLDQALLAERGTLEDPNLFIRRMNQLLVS

O=C(O)c1cn(C2CC2)c2cc(N3CCNCC3)c(F)cc2c1=O [Ciprofloxacin]
inhibition of growth (zones of inhibition) (E.coli MC4100; MC4100, discs in the range of 0.6-0.01 μM): some inhibition of growth
zone of inhibition (E.coli MC4100; 0.025 μM): no zone of inhibition
zone of inhibition (E.coli MC4100; 0.1 μM): reduced zone of inhibition
effect on growth versus parental strain (FIG. 18) (E.coli JGT11 (htpG null); JGT11, even at concentrations as low as 0.01 μM): significantly greater effect
inhibition of growth (zones of inhibition) versus MC4100 (E.coli JGT11 (htpG null); htpG null mutant, discs in the range of 0.6-0.01 μM): increased inhibition

COc1cc([C@@H]2c3cc4c(cc3[C@@H](O[C@@H]3O[C@@H]5CO[C@@H](C)O[C@H]5[C@H](O)[C@H]3O)[C@H]3COC(=O)[C@H]23)OCO4)cc(OC)c1O [VePesid, Etoposide]
MTD [1]: 70 mg/kg

COC1=C2C[C@@H](C)C[C@H](OC)[C@H](O)[C@@H](C)/C=C(\C)[C@H](OC(N)=O)[C@@H](OC)/C=C\C=C(/C)C(=O)NC(=CC1=O)C2=O [Geldanamycin]
activity of HtpG (HtpG): inhibits
MTD [1]: 22 mg/kg
